In patent publication US10537521B2 (priority 2016, dated 2020):
Where two headings read alike, the source gives them in different places.

Experiments:
[1] = after oral administration of tramadol (single dose of 100 mg); cited from earlier work
[2] = Example 1: multiple-dose randomized 3-way crossover PK study of two IV tramadol regimens vs 100 mg oral q6h; conditions: mean; for AUCtau n: last dosing interval
Method: A fitted curve was obtained because the second oral peak was not measured in the study. For the modeling portion of the analysis, a validated Phoenix® WinNonlin® program version 6.4 (Certara) was used for PK analysis, simulation, graphics, tables and statistical calculations. […] For purposes of nonlinear regression, the data were weighted as 1/observed. Predicted concentration-time data were calculated based on the individual fitted PK parameters.

[3] = test system: experienced opioid abusers; conditions: tramadol 100 and 200 mg IV, cited from earlier work
[4] = test system: patients undergoing abdominal surgery; conditions: initial tramadol 100 mg or morphine 5 mg i.v., repeat tramadol 50 mg or morphine 5 mg on demand; cited from earlier work
postoperative pain = conditions: after 4 to 6 hours; IV or IM intermittent injection, dose titrated to pain response; cited from earlier work
[5] = Example 4: multiple dose steady-state dose proportionality study, tramadol injection 50/100 mg IV and Ultram tablet 50/100 mg oral q6h; type: in vivo, human; conditions: steady-state, healthy volunteers
Method: The study was an open-label, single-period, randomized, parallel treatment design. Subjects received study drug every 6 hours beginning on the morning of Day 1 and ending on the morning of Day 3. The first dose on Day 1 and the last dose on Day 3 were administered after a minimum 10 hour fast.

[6] = tramadol single […] [100 mg] p.o., humans N=12 male; cited from earlier work
[7] = 50 mg IV regimen (h 0, 2, 4, then q4h to h 44), plasma
[8] = 75 mg IV regimen (h 0, 3, 6, then q6h to h 42)
[9] = 75 mg IV regimen (h 0, 3, 6, then q6h to h 42), plasma
[10] = 100 mg oral q6h to h 42, plasma
[11] = Tramadol dosed as 50 mg IV every 6 hours
[12] = Tramadol dosed as 50 mg Oral (Ultram tablet) every 6 hours
[13] = Tramadol dosed as 100 mg IV every 6 hours
[14] = Tramadol dosed as 100 gm Oral (Ultram tablet) every 6 hours

CN(C)C[C@H]1CCCC[C@]1(O)c1cccc(O)c1 [O-desmethyltramadol]
half-life [1]: approximately 6.7 hours | Cmax(0-2) ([2]; 50 mg IV regimen (h 0, 2, 4, then q4h to h 44), first dose, plasma): 17.1 ng/mL | RAC(trough) ([2]; 50 mg IV regimen (h 0, 2, 4, then q4h to h 44)): 5.2872 | AUC0-24 [2, 7]: 1425 ng·h/mL | AUC0-48 [2, 7]: 3427 ng·h/mL | AUC24-48 [2, 7]: 2002 ng·h/mL | C2 [2, 7]: 16.9 ng/mL | C48 (T48) [2, 7]: 81.7 ng/mL | C1 h [2, 7]: 11.8 ng/mL | Cmax(2-4) [2, 7]: 37.8 ng/mL | Css [2, 7]: 88.9 ng/mL | Tmax [2, 7]: 44.95 h | Tmax(0-2) [2, 7]: 1.85 h | Tmax(2-4) [2, 7]: 3.95 h | Tmax(44-48) [2, 7]: 45.31 h | Cmax(0-3) ([2]; 75 mg IV regimen (h 0, 3, 6, then q6h to h 42), first dose, plasma): 29.7 ng/mL | AUCtau n [2, 8]: 519.8 ng·h/mL | RAC(trough) [2, 8]: 2.7237 | AUC0-24 [2, 9]: 1608 ng·h/mL | AUC0-48 [2, 9]: 3504 ng·h/mL | AUC24-48 [2, 9]: 1896 ng·h/mL | C3 [2, 9]: 29.5 ng/mL | C48 (T48) [2, 9]: 75.9 ng/mL | C1 h [2, 9]: 19.9 ng/mL | Cmax(3-6) [2, 9]: 59.4 ng/mL | Css [2, 9]: 86.6 ng/mL | Tmax [2, 9]: 32.99 h | Tmax(0-3) [2, 9]: 2.71 h | Tmax(3-6) [2, 9]: 5.81 h | Tmax(42-48) [2, 9]: 43.10 h | Cmax(0-6) ([2]; 100 mg oral q6h to h 42, first dose, plasma): 60.3 ng/mL | AUCtau n ([2]; 100 mg oral q6h to h 42): 768.4 ng·h/mL | RAC(trough) ([2]; 100 mg oral q6h to h 42): 2.7839 | AUC0-24 [2, 10]: 1655 ng·h/mL | AUC0-48 [2, 10]: 4349 ng·h/mL | AUC24-48 [2, 10]: 2693 ng·h/mL | C6 [2, 10]: 42.3 ng/mL | C48 (T48) [2, 10]: 111 ng/mL | C1 h [2, 10]: 41.4 ng/mL | Cmax [2, 10]: 146 ng/mL | Css [2, 10]: 128 ng/mL | Tmax [2, 10]: 43.97 h | Tmax(0-6) [2, 10]: 2.04 h | Tmax(42-48) [2, 10]: 43.97 h | Cmax(42-48) ([2]; 100 mg oral q6h to h 42, steady-state, plasma): 146 ng/mL

CN1CC[C@]23c4c5ccc(O)c4O[C@H]2[C@@H](O)C=C[C@H]3[C@H]1C5 [morphine]
ratings of “liking” ([3]; morphine 10 and 20 mg IV, over 5 minutes, 10 experienced opioid abusers): significantly increased ratings | ratings of “feel drug effect” compared to placebo ([3]; morphine 10 and 20 mg IV, over 5 minutes): significantly increased | ratings on the ARCI-MBG scale ([3]; morphine 20 mg IV): increased ratings | responder rate (no or slight pain) within the first 90 minutes of treatment [4]: 81.2% | reduction of pain intensity (postoperative pain): 69.8%

CN(C)C[C@H]1CCCC[C@]1(O)c1cccc(O)c1 [tramadol M1 metabolite]
Cmin, tramadol M1 metabolite, Mean ± SD [5, 11]: 55.9 ± 7.4 ng/mL | Trough Peak, tramadol M1 metabolite, Mean ± SD [5, 11]: 0.715 ± 0.044 ratio | Cmin, tramadol M1 metabolite, Mean ± SD [5, 12]: 65.9 ± 15.8 ng/mL | Trough Peak, tramadol M1 metabolite, Mean ± SD [5, 12]: 0.670 ± 0.061 ratio | Cmin, tramadol M1 metabolite, Mean ± SD [5, 13]: 130 ± 37 ng/mL | Trough Peak, tramadol M1 metabolite, Mean ± SD [5, 13]: 0.795 ± 0.040 ratio | Cmin, tramadol M1 metabolite, Mean ± SD [5, 14]: 93.6 ± 34.6 ng/mL | Trough Peak, tramadol M1 metabolite, Mean ± SD [5, 14]: 0.707 ± 0.080 ratio

(+)-O-desmethyltramadol [(+)-M1]
AUC [6]: 1258 ± 410 ng·h/mL | Cmax [6]: 147 ± 39 ng/mL | Tmax [6]: 1.6 ± 0.5 h | t1/2 [6]: 6.0 ± 1.0 h
